One test concerns human osteoblast cells. The experiment in a line: Standard tumor promoter assay: Lucifer Yellow dye transfer, DDT-induced uncoupling. The class given is cell-based. The settings on record: DDT 13 μM for 60 minutes, n=13; control without DDT median 14.5 cells. From the text:
The compound 1,1-bis(p-chlorophenyl)-2,2,2-trichlorethane, also known as the insecticide DDT, is an inhibitor of gap junctional communication, and has tumor promoting abilities. It inhibits cell-to-cell communication by reducing the gap junction number and size, and exposure to DDT is associated with decreased cellular levels of phosphorylated (active) forms of the gap junction protein Cx43. These actions are considered pivotal for the compound's oncogenic properties (X. Guan, et al. (1996) Carcinogenesis, 17 1791-1798; R. J. Ruch, et al. (1994) Carcinogenesis, 15 301-306); B. V. Madhukar, et al. (1996) Cancer Lett. 106 117-123). As a means of monitoring the therapeutic efficacy of the isopeptides, the effects of the isopeptides on DDT-induced uncoupling in human osteoblast cells can be determined. […]
After harvesting, the mononuclear fraction is washed once with culture medium and centrifuged at 1800 rpm for 10 minutes. Subsequently cells are counted and plated in culture medium at 8×10^6 cells/100 mm dish. […]
After culturing, cells are affixed to a PDMI-2 culture chamber (Medical Systems Corp.), maintained at 37° C. with superfused CO2, on a Zeiss Axiovert microscope. […] A cell in the monolayer is carefully injected with LY for 30 seconds; the micropipette is removed from the cell and after 30 seconds the number of cells that show dye transfer is counted. […]

In test [1] the test system is calcium-induced arrhythmias. The experiment in a line: Calcium-induced arrhythmia model (Lynch et al.) in mice. The test is classed as in vivo, Male NMRI mice. The settings on record: isopeptide 1 nmol/kg i.v. 3 min before CaCl2 infusion; (tarr(testcompound)-tarr(vehicle))x100/tarr(vehicle), time lag to first conduction block. On the procedure:
Isopeptides suitable for administration to cardiac cells can be identified in an in vivo model of calcium-induced arrhythmias according to the model of Lynch et al. (1981) J Cardiovasc. Pharmacol. 3: 49-60. Mice (25-30 g) are anaesthetized with a neurolept anaesthetic combination and an i.v. cannula is inserted into the tail vein. A lead II ECG signal is recorded continuously by positioning a stainless steel ECG electrodes on the right forelimb and on the left hind limb. The ground electrode is placed on the right hind limb. The signal is amplified (x 5.000-10.000) and filtered (0.1-150 Hz) via a Hugo Sachs Electronic model 689 ECG module. The analog signal is digitized via a 12 bit data acquisition board (Data Translation model DT321) and sampled at 1000 Hz using the Notocord HEM 3.1 software for Windows NT. After a 10-minute equilibration period, the test sample of peptide is injected into the tail vein. Mice pre-treated with buffer are tested as a measure of the control level in untreated animals. The injection volume is 100 μl in all experiments.
Infusion of CaCl2 (30 mg/ml, 0.1 ml/min≈100 mg/kg/min (calcium chloride-2-hydrate, Riedel-de Haën, Germany)) is started 3 min after i.v. administration of drug or vehicle. The time lag to onset of 2nd degree AV-block is determined as the time from the start of CaCl2 infusion until the first arrhythmic event occurs. An event of 2nd degree AV-block is defined as intermittent failure of the AV conduction characterised by a P-wave without the concomitant QRS complex.
Responses are expressed relative to the time until 2nd degree AV-block occurred in vehicle treated mice. The maximal effect of compounds (e.g., isopeptides, AAP, AAP10 or controls) is determined. […]
An intravenous cannula was inserted into the tail vein. The lead II ECG signal was recorded continuously by positioning of stainless steel ECG electrodes on the right forelimb and on the left hind limb. […]

Regarding `Clc1ccc(C(c2ccc(Cl)cc2)C(Cl)(Cl)Cl)cc1` [DDT, 1,1-bis(p-chlorophenyl)-2,2,2-trichlorethane], the “number of cells that show dye transfer (median)” value in the test on human osteoblast cells was determined as 7.
As for “H-Gly-iso-D-Lys(4-methoxybenzoyl)-OH [Compound 18]”, the “% response” value in test [1] worked out at 16%.
Take “H-Gly-iso-D-Lys(4-nitrobenzoyl)-OH [Compound 19]”: the “% response” value in test [1] was determined as 33%.
Take “H-iso-Gln(NH(4-methoxybenzyl))-Ala-OH [Compound 101]”: the “% response” value in test [1] stood at 68%.
“H-iso-Gln(NH(4-methoxybenzyl))-D-Ala-OH [Compound 116]”: in test [1], the “% response” value was determined as 25%.
